target: T1, Recombinant human Plk-1 (6×His) (Homo sapiens, UniProt P53350); test: PLK enzyme assay (33P-γ-ATP incorporation into biotinylated casein, SPA beads); type: biochemical; details: 10 ng PLK enzyme, 90 minutes at room temperature, 0.5 μmol of ATP, casein substrate; read-out: Inhibition of PLK-1 IC50
T1 construct: 6×His; made in house; host or cells: baculovirus-infected insect cells (Hi5)
Protocol: Recombinant human Plk-1 (6×His) was purified from baculovirus-infected insect cells (Hi5).
10 ng of (produced in a recombinant manner and purified) PLK enzyme is incubated for 90 minutes at room temperature with biotinylated casein and 33P-γ-ATP as a substrate in a volume of 15 μl in 384-well Greiner small-volume microtiter plates (final concentrations in the buffer: 660 ng/ml of PLK; 0.7 μmol of casein, 0.5 μmol of ATP incl. 400 nCi/ml of 33P-γ-ATP; 10 mmol of MgCl2, 1 mmol of MnCl2; 0.01% NP40; 1 mmol of DTT, protease inhibitors; 0.1 mmol of Na2VO3 in 50 mmol of HEPES, pH 7.5). To complete the reaction, 5 μl of stop solution (500 μmol of ATP; 500 mmol of EDTA; 1% Triton X100; 100 mg/ml of streptavidin-coated SPA beads in PBS) is added. After the microtiter plate is sealed by film, the beads are sedimented by centrifuging (10 minutes, 1500 rpm). The incorporation of 33P-γ-ATP in casein is intended as a measurement of enzyme activity by β-counting.
Test substances are used in various concentrations (0 μmol, as well as in the range of 0.01-30 μmol). The final concentration of the solvent dimethyl sulfoxide is 1.5% in all batches.

T1 sequence (P53350 whole entry): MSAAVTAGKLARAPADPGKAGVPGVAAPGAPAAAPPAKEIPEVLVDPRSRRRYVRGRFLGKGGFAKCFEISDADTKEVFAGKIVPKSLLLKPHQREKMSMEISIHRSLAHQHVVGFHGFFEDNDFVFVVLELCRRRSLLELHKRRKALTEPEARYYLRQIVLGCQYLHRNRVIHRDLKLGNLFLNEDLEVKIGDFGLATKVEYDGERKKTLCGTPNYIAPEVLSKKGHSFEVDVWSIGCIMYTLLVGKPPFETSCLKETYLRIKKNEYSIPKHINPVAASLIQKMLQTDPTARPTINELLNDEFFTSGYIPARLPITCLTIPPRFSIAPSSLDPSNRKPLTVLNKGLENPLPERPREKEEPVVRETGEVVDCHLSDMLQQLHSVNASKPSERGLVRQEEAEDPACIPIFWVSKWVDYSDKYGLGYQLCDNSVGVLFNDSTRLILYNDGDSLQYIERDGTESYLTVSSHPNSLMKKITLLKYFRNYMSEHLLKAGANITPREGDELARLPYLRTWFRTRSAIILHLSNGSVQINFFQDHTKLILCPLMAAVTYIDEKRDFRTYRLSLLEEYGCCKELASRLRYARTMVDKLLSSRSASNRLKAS

| Compound | IC50 [nM] |
| --- | --- |
| CCOC(=O)C(C#N)=c1sc(=CNc2ccc(Cl)c(C(=O)O)c2)c(=O)n1CC [Example 33] | 420 |
| CCOC(=O)C(C#N)=c1sc(=CNc2cc(F)c(F)cc2C(=O)O)c(=O)n1CC [Example 37] | 3500 |
| CCOC(=O)C(C#N)=c1sc(=CNc2ccc(F)cc2C(=O)O)c(=O)n1CC [Example 35] | 2800 |
| CCOC(=O)C(C#N)=c1sc(=CNc2ccc(C)cc2C(=O)O)c(=O)n1CC [Example 38] | 3000 |
| CCOC(=O)C(C#N)=c1sc(=CNc2ccc(Br)cc2C(=O)O)c(=O)n1CC [Example 36] | 1800 |
| CCOC(=O)C(C#N)=c1sc(=CNc2ccc(Cl)cc2C(=O)O)c(=O)n1CC [Example 31] | 1900 |
| CCOC(=O)C(C#N)=c1sc(=CNc2cccc(C)c2C(=O)O)c(=O)n1CC [Example 39] | 5900 |
| CCOC(=O)C(C#N)=c1sc(=CNC(=O)Nc2ccccc2)c(=O)n1CC [Example 45] | 680 |
| CCOC(=O)C(C#N)=c1sc(=CNc2ccc(C(=O)O)cc2C)c(=O)n1CC [Example 40] | 1700 |
| CCOC(=O)C(C#N)=c1sc(=CNc2cccc(S(N)(=O)=O)c2)c(=O)n1CC [Example 53] | 460 |
| CCOC(=O)C(C#N)=c1sc(=CNc2cc(C(=O)O)ccc2O)c(=O)n1CC [Example 28] | 2300 |
| CCOC(=O)C(C#N)=c1sc(=CNc2ccc(S(C)(=O)=O)cc2)c(=O)n1CC [Example 22] | 510 |
| CCOC(=O)C(C#N)=c1sc(=CNc2ccccc2C(=O)O)c(=O)n1CC [Example 26] | 6300 |
| CCOC(=O)C(C#N)=c1sc(=CNc2cc(Cl)ccc2C(=O)O)c(=O)n1CC [Example 32] | 1700 |

Compounds with a lower IC50, results first:

| IC50 [nM] | Compound |
| --- | --- |
| 400 | CCOC(=O)C(C#N)=c1sc(=CN)c(=O)n1CC (mixture of isomers) [Example 11, (E or Z)-(5-(E/Z)-Aminomethylene-3-ethyl-4-oxo-thiazolidin-2-ylidene)-cyanoacetic acid ethyl ester] |
| 290 | CCOC(=O)C(C#N)=c1sc(=CNc2cccc(CO)c2)c(=O)n1CC [Example 60] |
| 270 | CCOC(=O)C(C#N)=c1sc(=CNc2ccc(NC(C)=O)cc2)c(=O)n1CC [Example 58] |
| 270 | CCOC(=O)C(C#N)=c1sc(=CNc2cccc(C(N)=O)c2)c(=O)n1CC [Example 48] |
| 260 | CCOC(=O)C(C#N)=c1sc(=CNc2cccc(C(=O)NC)c2)c(=O)n1CC [Example 52] |
| 250 | CCOC(=O)C(C#N)=c1sc(=CNc2ccc(C(=O)O)cc2O)c(=O)n1CC [Example 30] |
| 240 | CCOC(=O)C(C#N)=c1sc(=CNc2ccc(S(N)(=O)=O)cc2)c(=O)n1CC [Example 50] |
| 230 | CCn1c(=CC#N)sc(=CNc2ccccc2)c1=O (mixture of isomers) [Example 21, (E or Z)-(3-Ethyl-4-oxo-5-(E/Z)-phenylaminomethylene-thiazolidin-2-ylidene)-acetonitrile] |
| 230 | CCOC(=O)C(C#N)=c1sc(=CNc2cccc(C(=O)O)c2)c(=O)n1CC [Example 24] |
| 200 | CCOC(=O)C(C#N)=c1sc(=CNc2ccc(C(N)=O)cc2)c(=O)n1CC (mixture of isomers) [Example 10, (E or Z)-{5-(E/Z)-[(4-Carbamoyl-phenylamino)-methylene]-3-ethyl-4-oxo-thiazolidin-2-ylidene}-cyanoacetic acid ethyl ester] |
| 180 | CCOC(=O)C(C#N)=c1sc(=CNc2cccc(NC(C)=O)c2)c(=O)n1CC [Example 59] |
| 100 | CCn1c(=C(C#N)C(=O)O)sc(=CNc2ccccc2)c1=O (mixture of isomers) [Example 12, (E or Z)-Cyano-(3-ethyl-4-oxo-5-(E/Z)-phenylaminomethylene-thiazolidin-2-ylidene)-acetic acid] |

tested on: human MaTu breast tumor cells; test: Proliferation assay (crystal violet staining); type: cell-based; details: 96 h, incubated for 4 days with test substances, read-out: Inhibition of the Tumor Cell Proliferation (MaTu) IC50
Protocol: Cultivated human MaTu breast tumor cells were flattened out at a density of 5000 cells/measuring point in a 96-well multititer plate in […] of the corresponding growth medium. After 24 hours, the cells of one plate (zero-point plate) were colored with crystal violet (see below), while the medium of the other plates was replaced by fresh culture medium […], to which the test substances were added in various concentrations (0 μm, as well as in the range of 0.01-30 μm; the final concentration of the solvent dimethyl sulfoxide was 0.5%). The cells were incubated for 4 days in the presence of test substances. The cell proliferation was determined by coloring the cells with crystal violet: the cells were fixed by adding 20 μl/measuring point of an 11% glutaric aldehyde solution for 15 minutes at room temperature. After three washing cycles of the fixed cells with water, the plates were dried at room temperature. The cells were colored by adding 100 μl/measuring point of a 0.1% crystal violet solution (pH was set at 3 by adding acetic acid). After three washing cycles of the colored cells with water, the plates were dried at room temperature. The dye was dissolved by adding 100 μl/measuring point of a 10% acetic acid solution. The extinction was determined by photometry at a wavelength of 595 nm. The change of cell growth, in percent, was calculated by standardization of the measured values to the extinction values of the zero-point plate (=0%) and the extinction of the untreated (0 μm) cells (=100%).

| IC50 [nM] | Compound |
| --- | --- |
| 15000 | CCOC(=O)C(C#N)=c1sc(=CN)c(=O)n1CC (mixture of isomers) [Example 11, (E or Z)-(5-(E/Z)-Aminomethylene-3-ethyl-4-oxo-thiazolidin-2-ylidene)-cyanoacetic acid ethyl ester] |
| 2000 | CCn1c(=C(C#N)C(=O)O)sc(=CNc2ccccc2)c1=O (mixture of isomers) [Example 12, (E or Z)-Cyano-(3-ethyl-4-oxo-5-(E/Z)-phenylaminomethylene-thiazolidin-2-ylidene)-acetic acid] |
| 4000 | CCOC(=O)C(C#N)=c1sc(=CNc2ccc(C(N)=O)cc2)c(=O)n1CC (mixture of isomers) [Example 10, (E or Z)-{5-(E/Z)-[(4-Carbamoyl-phenylamino)-methylene]-3-ethyl-4-oxo-thiazolidin-2-ylidene}-cyanoacetic acid ethyl ester] |

Source: US20060079503A1, “Thiazolidinones and the use therof as polo-like kinase inhibitors” (SCHERING AKTIENGESELLSCHAFT, priority 2002, published 2006)
